The text below walks through data of ChEMBL document CHEMBL4219205, “Utilizing a structure-based docking approach to develop potent G protein-coupled receptor kinase (GRK) 2 and 5 inhibitors” (Bioorg Med Chem Lett, 2018).

Each structure is given as a SMILES string. Where only a bound is given, the exact number is not on record here.

For test [1], the target named is G protein-coupled receptor kinase 5 (Homo sapiens, UniProt P34947). Description: Inhibition of GRK5 (unknown origin) preincubated for 10 mins followed by peptide substrate and ATP addition measured after 1 hr by TR-FRET assay. (In general: TR-FRET usually uses a lanthanide donor and a delayed reading to cut background.)
Sequence of G protein-coupled receptor kinase 5 (P34947 whole entry): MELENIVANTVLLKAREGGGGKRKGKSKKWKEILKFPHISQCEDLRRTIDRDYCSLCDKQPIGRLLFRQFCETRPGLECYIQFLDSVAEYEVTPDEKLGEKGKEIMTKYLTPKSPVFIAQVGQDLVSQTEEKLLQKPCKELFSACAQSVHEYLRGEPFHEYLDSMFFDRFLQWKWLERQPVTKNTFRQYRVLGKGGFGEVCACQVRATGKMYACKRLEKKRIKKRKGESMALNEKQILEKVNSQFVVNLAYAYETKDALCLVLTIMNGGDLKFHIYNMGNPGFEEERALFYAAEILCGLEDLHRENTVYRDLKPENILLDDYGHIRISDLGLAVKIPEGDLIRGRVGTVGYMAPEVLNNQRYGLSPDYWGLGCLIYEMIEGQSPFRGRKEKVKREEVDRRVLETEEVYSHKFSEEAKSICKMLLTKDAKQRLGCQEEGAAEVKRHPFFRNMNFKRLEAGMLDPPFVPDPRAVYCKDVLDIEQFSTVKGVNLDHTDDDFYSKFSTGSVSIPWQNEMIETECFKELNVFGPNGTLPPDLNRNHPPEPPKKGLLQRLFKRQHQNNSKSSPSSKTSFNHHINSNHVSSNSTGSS
The next test addresses T1, Rhodopsin kinase GRK1 (Homo sapiens, UniProt Q15835).
T1 sequence (Q15835 whole entry): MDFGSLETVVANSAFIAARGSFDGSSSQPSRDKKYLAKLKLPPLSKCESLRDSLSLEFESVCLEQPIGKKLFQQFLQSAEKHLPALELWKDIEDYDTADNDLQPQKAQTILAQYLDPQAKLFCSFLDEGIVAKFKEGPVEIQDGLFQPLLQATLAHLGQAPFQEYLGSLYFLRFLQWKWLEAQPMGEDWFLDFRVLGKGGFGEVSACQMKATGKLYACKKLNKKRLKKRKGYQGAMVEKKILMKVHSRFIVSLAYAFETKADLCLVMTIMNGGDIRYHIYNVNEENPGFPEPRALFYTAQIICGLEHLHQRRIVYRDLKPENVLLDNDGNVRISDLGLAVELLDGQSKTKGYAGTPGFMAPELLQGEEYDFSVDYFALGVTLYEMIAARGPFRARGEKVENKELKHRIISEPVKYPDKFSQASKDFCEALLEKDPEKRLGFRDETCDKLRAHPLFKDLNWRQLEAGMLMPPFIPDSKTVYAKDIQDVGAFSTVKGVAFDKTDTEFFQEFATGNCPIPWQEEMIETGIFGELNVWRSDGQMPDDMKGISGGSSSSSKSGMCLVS
Description: Inhibition of GRK1 (unknown origin) preincubated for 10 mins followed by peptide substrate and ATP addition measured after 1 hr by TR-FRET assay.

Test [2] addresses T2, Beta-adrenergic receptor kinase 1 (Homo sapiens, UniProt P25098).
T2 sequence (P25098 whole entry): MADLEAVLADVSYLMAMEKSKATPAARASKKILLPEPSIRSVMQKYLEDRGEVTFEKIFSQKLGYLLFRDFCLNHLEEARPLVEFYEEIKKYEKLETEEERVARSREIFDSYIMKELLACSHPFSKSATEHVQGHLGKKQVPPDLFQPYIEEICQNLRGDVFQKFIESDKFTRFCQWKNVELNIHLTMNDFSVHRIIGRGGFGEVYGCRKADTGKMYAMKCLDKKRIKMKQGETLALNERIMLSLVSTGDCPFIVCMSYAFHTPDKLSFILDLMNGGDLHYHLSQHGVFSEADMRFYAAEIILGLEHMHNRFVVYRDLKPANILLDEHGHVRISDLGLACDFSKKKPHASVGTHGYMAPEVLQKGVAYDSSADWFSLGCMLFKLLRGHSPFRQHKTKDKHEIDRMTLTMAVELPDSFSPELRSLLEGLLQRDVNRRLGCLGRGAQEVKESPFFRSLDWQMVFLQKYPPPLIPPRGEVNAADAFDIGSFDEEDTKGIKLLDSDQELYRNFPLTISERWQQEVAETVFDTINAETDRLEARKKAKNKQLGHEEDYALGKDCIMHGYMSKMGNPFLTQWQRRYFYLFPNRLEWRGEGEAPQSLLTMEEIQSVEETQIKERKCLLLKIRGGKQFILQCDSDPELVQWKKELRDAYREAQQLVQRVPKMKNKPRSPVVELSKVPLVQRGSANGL
Description: Inhibition of GRK2 (unknown origin) preincubated for 10 mins followed by peptide substrate and ATP addition measured after 1 hr by TR-FRET assay.

For `CC1=C(C(=O)Nc2ccc3[nH]ncc3c2)C(c2ccc(F)c(CCC(=O)NCC3(C)CCCCC3)c2)NC(=O)N1` (centres undefined), the IC50 in test [1] was over 100 µM; against Rhodopsin kinase GRK1 it was over 100 µM; in test [2], 1.8 µM.
`CC1=C(C(=O)Nc2ccc3[nH]ncc3c2)C(c2ccc(F)c(CCC(=O)NCCc3ccccc3)c2)NC(=O)N1` (centres undefined): the IC50 in test [1] was over 100 µM; at Rhodopsin kinase GRK1, over 100 µM; in test [2], 4.7 µM.
With `CCC1(O)CCCN(C(=O)CCc2cc(C3NC(=O)NC(C)=C3C(=O)Nc3ccc4[nH]ncc4c3)ccc2F)C1` (centres undefined), the IC50 was over 100 µM in test [1], over 100 µM on Rhodopsin kinase GRK1 and 29 µM in test [2].
As to `COC(=O)C1(NC(=O)c2cc(C3NC(=O)NC(C)=C3C(=O)Nc3ccc4[nH]ncc4c3)ccc2F)CCCCC1` (centres undefined), the values for the IC50 (at Rhodopsin kinase GRK1; in test [2]) were 83 µM and 0.16 µM, respectively.
On to `CCC(C)CN(CCO)C(=O)Cc1cc(C2NC(=O)NC(C)=C2C(=O)Nc2ccc3[nH]ncc3c2)ccc1F` (centres undefined), for which the IC50 in test [1] is 9.3 µM; against Rhodopsin kinase GRK1 it was over 100 µM; in test [2], 0.83 µM.
Regarding `CCC(C)N(C)C(=O)c1cc(C2NC(=O)NC(C)=C2C(=O)Nc2ccc3[nH]ncc3c2)ccc1F` (centres undefined), the IC50 was over 100 µM in test [1], over 100 µM against Rhodopsin kinase GRK1 and 44 µM in test [2].
Consider `CC1=C(C(=O)Nc2ccc3[nH]ncc3c2)C(c2ccc(F)c(CC(=O)N3CCOC(CCO)C3)c2)NC(=O)N1` (centres undefined), for which the IC50 at Rhodopsin kinase GRK1 was over 100 µM.
In the case of `CC1=C(C(=O)Nc2ccc3[nH]ncc3c2)C(c2ccc(F)c(C(=O)NCc3cnc4c(c3)CCC4)c2)NC(=O)N1` (centres undefined), the IC50 is 9.5 µM in test [1], over 100 µM at Rhodopsin kinase GRK1 and 0.34 µM in test [2].
On to `CC1=C(C(=O)Nc2ccc3[nH]ncc3c2)C(c2ccc(F)c(CC(=O)N3CCCC(C(C)(C)C)CC3)c2)NC(=O)N1` (centres undefined), for which the IC50 is over 100 µM in test [1], over 100 µM against Rhodopsin kinase GRK1 and 3.5 µM in test [2].
`CC1=C(C(=O)Nc2ccc3[nH]ncc3c2)C(c2ccc(F)c(C(=O)NCCc3c(C)noc3C)c2)NC(=O)N1` (centres undefined): the IC50 against Rhodopsin kinase GRK1 was over 100 µM; in test [2], 0.64 µM.
As for `CCCCCCC(C)NC(=O)c1cc(C2NC(=O)NC(C)=C2C(=O)Nc2ccc3[nH]ncc3c2)ccc1F` (centres undefined), the IC50 on Rhodopsin kinase GRK1 was over 100 µM; in test [2], 4.1 µM.
Regarding `CC1=C(C(=O)Nc2ccc3[nH]ncc3c2)C(c2ccc(F)c(CC(=O)NCc3cc(C)ccc3C)c2)NC(=O)N1` (centres undefined), the IC50 in test [1] is over 100 µM; at Rhodopsin kinase GRK1, over 100 µM; in test [2], 1.9 µM.
With `CC1=C(C(=O)Nc2ccc3[nH]ncc3c2)C(c2ccc(F)c(CC(=O)NCc3ccc(C#N)nc3)c2)NC(=O)N1` (centres undefined), the IC50 is over 100 µM at Rhodopsin kinase GRK1 and 1.4 µM in test [2].
As for `CC1=C(C(=O)Nc2ccc3[nH]ncc3c2)C(c2ccc(F)c(C(=O)NCC(C)N3CCCCCC3)c2)NC(=O)N1` (centres undefined), the results for the IC50 (against Rhodopsin kinase GRK1; in test [2]) were over 100 µM and 1.2 µM, respectively.
Regarding `CC1=C(C(=O)Nc2ccc3[nH]ncc3c2)C(c2ccc(F)c(CC(=O)N(CCO)Cc3ccco3)c2)NC(=O)N1` (centres undefined), the IC50 in test [1] worked out at 1.7 µM; against Rhodopsin kinase GRK1 it was 26 µM; in test [2], 0.46 µM.
As to `CC1=C(C(=O)Nc2ccc3[nH]ncc3c2)C(c2ccc(F)c(CC(=O)NCC3CCN(C4CC4)CC3)c2)NC(=O)N1` (centres undefined), the IC50 against Rhodopsin kinase GRK1 is over 100 µM.
For the compound `CC#CCN(CCCC)C(=O)Cc1cc(C2NC(=O)NC(C)=C2C(=O)Nc2ccc3[nH]ncc3c2)ccc1F` (centres undefined), the IC50 in test [1] was 2.4 µM; against Rhodopsin kinase GRK1, over 100 µM; in test [2], 0.43 µM.
In the case of `C#CCN(Cc1ccco1)C(=O)Cc1cc(C2NC(=O)NC(C)=C2C(=O)Nc2ccc3[nH]ncc3c2)ccc1F` (centres undefined), the IC50 is 3.5 µM in test [1], over 100 µM on Rhodopsin kinase GRK1 and 0.92 µM in test [2].
The corresponding values for `CC1=C(C(=O)Nc2ccc3[nH]ncc3c2)C(c2ccc(F)c(CC(=O)N3CCC4CCC(C3)N4C)c2)NC(=O)N1` (centres undefined) are 6.1 µM, over 100 µM and 2.1 µM.
Take `CCc1nc(CNC(=O)c2cc(C3NC(=O)NC(C)=C3C(=O)Nc3ccc4[nH]ncc4c3)ccc2F)no1` (centres undefined): on Rhodopsin kinase GRK1, the IC50 turned out to be 3 µM.
For the compound `CC1=C(C(=O)Nc2ccc3[nH]ncc3c2)C(c2ccc(F)c(C(=O)NC(C)CCCC(C)C)c2)NC(=O)N1` (centres undefined), the IC50 is over 100 µM in test [1], over 100 µM on Rhodopsin kinase GRK1 and 4.1 µM in test [2].
Turning to `CC1=C(C(=O)Nc2ccc3[nH]ncc3c2)C(c2ccc(F)c(C(=O)NC3CC4CCC3(C)C4(C)C)c2)NC(=O)N1` (centres undefined), the IC50 is over 100 µM in test [1], over 100 µM at Rhodopsin kinase GRK1 and 4.6 µM in test [2].
As to `CC1=C(C(=O)Nc2ccc3[nH]ncc3c2)C(c2ccc(F)c(CC(=O)N(CCCO)CCCO)c2)NC(=O)N1` (centres undefined), the IC50 on Rhodopsin kinase GRK1 is over 100 µM; in test [2], 0.75 µM.
With `CC1=C(C(=O)Nc2ccc3[nH]ncc3c2)C(c2ccc(F)c(CCC(=O)NCc3ncc(C)o3)c2)NC(=O)N1` (centres undefined), the IC50 at Rhodopsin kinase GRK1 was over 100 µM.
Take `COCc1noc(CNC(=O)c2cc(C3NC(=O)NC(C)=C3C(=O)Nc3ccc4[nH]ncc4c3)ccc2F)n1` (centres undefined): the values for the IC50 (against Rhodopsin kinase GRK1; in test [2]) were 30 µM and 0.25 µM, respectively.
The corresponding values for `COc1ccccc1C(C)NC(=O)c1cc(C2NC(=O)NC(C)=C2C(=O)Nc2ccc3[nH]ncc3c2)ccc1F` (centres undefined) are 16 µM and 0.4 µM.
With `CC1=C(C(=O)Nc2ccc3[nH]ncc3c2)C(c2ccc(F)c(CCC(=O)NCC3(CO)CC3)c2)NC(=O)N1` (centres undefined), the IC50 is over 100 µM in test [1], over 100 µM against Rhodopsin kinase GRK1 and 3.8 µM in test [2].
For the compound `COCCCC1CCCCN1C(=O)c1cc(C2NC(=O)NC(C)=C2C(=O)Nc2ccc3[nH]ncc3c2)ccc1F` (centres undefined), the IC50 is over 100 µM in test [1], over 100 µM on Rhodopsin kinase GRK1 and 29 µM in test [2].
Regarding `CC1=C(C(=O)Nc2ccc3[nH]ncc3c2)C(c2ccc(F)c(CC(=O)NC3CC(=O)N(C)C3)c2)NC(=O)N1` (centres undefined), the values for the IC50 (against Rhodopsin kinase GRK1; in test [2]) were over 100 µM and 1.9 µM, respectively.
Consider `C#CCN(CC(C)C)C(=O)Cc1cc(C2NC(=O)NC(C)=C2C(=O)Nc2ccc3[nH]ncc3c2)ccc1F` (centres undefined), for which the IC50 is 13 µM in test [1], over 100 µM at Rhodopsin kinase GRK1 and 2.4 µM in test [2].
For the compound `CC1=C(C(=O)Nc2ccc3[nH]ncc3c2)C(c2ccc(F)c(C(=O)NC3CN4CCC3CC4)c2)NC(=O)N1` (centres undefined), the IC50 against Rhodopsin kinase GRK1 is over 100 µM; in test [2], 0.5 µM.
In the case of `CCC(C)N(CO)C(=O)Cc1cc(C2NC(=O)NC(C)=C2C(=O)Nc2ccc3[nH]ncc3c2)ccc1F` (centres undefined), the figures for the IC50 (on Rhodopsin kinase GRK1; in test [2]) were over 100 µM and 1.9 µM, respectively.
On to `CC1=C(C(=O)Nc2ccc3[nH]ncc3c2)C(c2ccc(F)c(CCC(=O)N(CC(C)C)C(C)C)c2)NC(=O)N1` (centres undefined), for which the IC50 in test [1] is over 100 µM; against Rhodopsin kinase GRK1, over 100 µM; in test [2] it was 12 µM.
On to `CC1=C(C(=O)Nc2ccc3[nH]ncc3c2)C(c2ccc(F)c(CC(=O)N3Cc4ccc(C)cc4C3)c2)NC(=O)N1` (centres undefined), for which the IC50 was 6.3 µM in test [1], over 100 µM on Rhodopsin kinase GRK1 and 0.2 µM in test [2].
Take `CC1=C(C(=O)Nc2ccc3[nH]ncc3c2)C(c2ccc(F)c(C(=O)N(C)Cc3cc(C)[nH]n3)c2)NC(=O)N1` (centres undefined): the IC50 is over 100 µM against Rhodopsin kinase GRK1 and 1.1 µM in test [2].
On to `CC1=C(C(=O)Nc2ccc3[nH]ncc3c2)C(c2ccc(F)c(C(=O)N(C)CC3CCCCO3)c2)NC(=O)N1` (centres undefined), for which the IC50 was over 100 µM in test [1], over 100 µM on Rhodopsin kinase GRK1 and 14 µM in test [2].
Turning to `CC1=C(C(=O)Nc2ccc3[nH]ncc3c2)C(c2ccc(F)c(CC(=O)N(C)Cc3nc(C)c[nH]3)c2)NC(=O)N1` (centres undefined), the IC50 at Rhodopsin kinase GRK1 was over 100 µM; in test [2], 2 µM.
Take `CC1=C(C(=O)Nc2ccc3[nH]ncc3c2)C(c2ccc(F)c(CC(=O)N(CCO)CCC(C)C)c2)NC(=O)N1` (centres undefined): the figures for the IC50 (on Rhodopsin kinase GRK1; in test [2]) were over 100 µM and 1.5 µM, respectively.
As to `CCCOC1CCN(C(=O)Cc2cc(C3NC(=O)NC(C)=C3C(=O)Nc3ccc4[nH]ncc4c3)ccc2F)C1` (centres undefined), the IC50 against Rhodopsin kinase GRK1 was over 100 µM; in test [2], 1.6 µM.

The term IC50 denotes the concentration that gives 50% inhibition. The low end stands for greater potency in that assay, the high end for weaker potency in that assay.
